Assay results from patent publication US8697697B2, “Pyrazole derivatives as ERK inhibitors” (Kinentia Biosciences LLC, priority 2011, dated 2014).
Counter-ions that a name gives are not always drawn. Each block holds one molecule with its values, some of them ahead of it.

Key:
human keratinocytes = experiment: Keratinocyte proliferation assay; format: cell-based
Procedure: Compounds of the Invention were assayed for their ability to inhibit the proliferation of human keratinocytes. Namely, keratinocytes were plated on day zero and allowed to attach. One day later, the cells were washed and then treated with control culture medium with or without the test compound. Cells were harvested and counted on day-2. Value for the time-zero control was determined (mean and standard deviation based on triplicate experiments with n=9 data points). The untreated control value at day 2 was then determined (mean and standard deviation based on triplicate experiments with n=12 data points). All of the values from treated samples were compared to the control values and are expressed as the change from control±the standard deviation based on the three experiments.

ERK-2 kinase = ERK-2 kinase (Homo sapiens, UniProt P28482); experiment: Assay against ERK-2 (33-P ATP, myelin basic protein substrate); format: biochemical; conditions: non-labeled ATP 1 μM, 22° C.
Procedure: Compounds of the invention were assayed for ability to inhibit ERK-2 kinase using a 33-P radio-ligand binding assay. 33-P labeled ATP was used as the radio-ligand and myelin basic protein was used as the substrate. A non-labeled ATP concentration of 1 μM was used. Plates were incubated at 22° C. before isolation and radioactivity determination by scintillation counting. The IC50 values (concentration causing a half-maximal inhibition) and Hill coefficients (nH) were determined by non-linear regression analysis of competition curves generated with 10 data points using Hill equation curve fitting.

[1] = system: MMP-1 expression in skin fibroblasts; experiment: MMP-1 expression in skin fibroblasts (Western blot); format: cell-based, human
Procedure: (§1) Fibroblasts were plated on day zero and allowed to attach. One day later, the cells were washed and then treated with control culture medium with or without test compound. Cells were harvested and counted on day-3. The culture medium was then assayed via Western blot analysis to determine expression levels of MMP-1.

human skin fibroblasts = experiment: Skin fibroblast proliferation; format: cell-based; conditions: at higher concentrations
Procedure: as §1

Chain of ERK-2 kinase (P28482 whole entry): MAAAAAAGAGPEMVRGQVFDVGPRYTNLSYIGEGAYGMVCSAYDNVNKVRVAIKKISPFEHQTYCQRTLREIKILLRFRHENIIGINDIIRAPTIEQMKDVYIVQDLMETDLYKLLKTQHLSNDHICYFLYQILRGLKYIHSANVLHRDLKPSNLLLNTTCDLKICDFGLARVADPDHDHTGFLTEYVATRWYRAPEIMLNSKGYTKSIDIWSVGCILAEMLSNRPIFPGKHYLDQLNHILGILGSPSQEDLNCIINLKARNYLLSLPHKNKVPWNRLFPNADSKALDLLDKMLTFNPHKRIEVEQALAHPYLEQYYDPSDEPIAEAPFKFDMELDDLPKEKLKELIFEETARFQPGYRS

IC50 (ERK-2 kinase): 1.43 µM
SMILES: Cl.Clc1cccc(-c2cn[nH]c2-c2c[nH]c3ncccc23)c1 [Example 1, 3-[4-(3-Chlorophenyl)-2H-pyrazol-3-yl]-1H-pyrrolo[2,3-b]pyridine Hydrochloride]
GI50 (human keratinocytes; calculated from Table 2 data, read-out: GI50 (inhibition of keratinocyte proliferation)): 4.36 µM
inhibition at 0.03 µM (human keratinocytes; test concentration 0.03 μM, cells counted on day-2, change from control): -20%
inhibition at 0.15 µM (human keratinocytes; test concentration 0.15 μM, cells counted on day-2, change from control): -13%
inhibition at 0.3 µM (human keratinocytes; test concentration 0.30 μM, cells counted on day-2, change from control): -6%
inhibition at 1.51 µM (human keratinocytes; test concentration 1.51 μM, cells counted on day-2, change from control): 8%
inhibition at 3.02 µM (human keratinocytes; test concentration 3.02 μM, cells counted on day-2, change from control): 21%
inhibition at 6.04 µM (human keratinocytes; test concentration 6.04 μM, cells counted on day-2, change from control): 72%
inhibition at 15.1 µM (human keratinocytes; test concentration 15.1 μM, cells counted on day-2, change from control): 118%
MMP-1 expression ([1]; 5 μg/mL, culture medium, day-3, Western blot): significantly inhibited
collagenase (MMP-1) production ([1]; at higher concentrations, Western blot): significant reduction
effect on fibroblast proliferation (human skin fibroblasts): minimal effect

IC50 (ERK-2 kinase): 9.86 µM
SMILES: c1ccc(-c2cn[nH]c2-c2c[nH]c3ncccc23)cc1 [Example 2, 3-[4-Phenyl-2H-pyrazol-3-yl]-1H-pyrrolo[2,3-b]pyridine Hydrochloride]

IC50 (ERK-2 kinase): 11.3 µM
SMILES: c1ccc(CNc2ccc3c(-c4[nH]ncc4-c4ccccc4)c[nH]c3n2)cc1 [Example 4, Benzyl-[3-(4-phenyl-2H-pyrazol-3-yl)-1H-pyrrolo[2,3-b]pyridin-6-yl]amine]

IC50 (ERK-2 kinase): 2.23 µM
SMILES: Clc1cccc(-c2cn[nH]c2-c2c[nH]c3nc(NCc4ccccc4)ccc23)c1 [Example 3, Benzyl-{3-[4-(3-chlorophenyl)-2H-pyrazol-3-yl]-1H-pyrrolo[2,3-b]pyridin-6-yl}amine Dihydrochloride]
